Test results taken from patent publication US6270780A, “Cosmetic compositions containing resveratrol” (Chesebrough-Pond's USA Co., division of Conopco, priority 1998, dated 2001).
Like-named read-outs stand apart in the source and are kept apart here.

Tested on: ZR75 cells
Test: 3H-thymidine incorporation (DNA synthesis) / proliferation of ZR75 cells, estrogen-like activity
Type: cell-based, human
Conditions: for activity at 0.001 µM / activity at 0.01 µM / activity at 0.1 µM / activity at 1 µM: Homo sapiens, control water; for activity at 0.001 µM: 1 nM; for activity at 0.01 µM: 10 nM; for activity at 0.1 µM: 100 nM; for activity at 1 µM: 1000 nM, read-out: DNA synthesis (% of Control)
From the text: The following test was employed to determine whether resveratrol has an estrogen-like activity:
The ZR75 cell line is a ductal breast carcinoma cell line, originally isolated from malignant mammary epithelium of a person (Engel et al., Human breast carcinoma cells in continuous culture: A review., Cancer Res., 38: 4327-4339, 1978). This cell line contains receptors for estrogen, progesterone and other steroid hormones, but responds through an increase in proliferation only to estrogen. The cell line contains high affinity estrogen-specific receptors. Therefore, this cell line is used for testing estrogen-like activity (Markiewicz et al., In vitro bioassays of non-steroidal phytoestrogens, J. Steroid Biochem. Molec. Biol., 45: 399-405, 1993)
Methodology Used for Determining the Rate of DNA Synthesis in Cells
The incorporation of ^3 H-thymidine by cultured cells was used as an assay of cell proliferation (both for ZR75 cells and for keratinocytes). Thymidine is one of four deoxynucleosides which are the monomeric units of DNA. Prior to cell division of a somatic cell, the complete genome of the cell undergoing cell division is replicated. This involves large scale DNA synthesis by the cell and enables both daughter cells to receive identical copies of the genetic material. When ^3 H-thymidine is included in the culture media of cells which are synthesizing DNA in preparation for cell division then the labeled thymidine is incorporated into the newly synthesized DNA. The extent of incorporation of ^3 H-thymidine into a population of cells is proportional to the rate of DNA synthesis by this population of cells and therefore an indication of their cellular proliferation.
ZR75 cells (from American Type Culture Collection, Rockville, Md.) were grown in RPMI1640 media (from Gibco Life Technologies) with 10% fetal bovine serum (FBS) , 100 units penicillin per ml and 100 units of streptomycin per ml. All incubations were performed at 37° C. in 5% CO2. […] The cells were seeded at a density of one million per 75 cm2 flask. For the experiment, the cells were seeded in 24 well plates at 100,000 cells per ml per well.
After growing for 24 hours, the media was removed, the cells were washed with PBS (phosphate buffered saline, 0.01 M sodium phosphate, 0.138 M sodium chloride, 0.0027 M potassium chloride, pH 7.4) and 1 ml of RPMI 1640 without serum (but with streptomycin and penicillin) was added. Stock solutions of resveratrol in dimethyl sulfoxide (DMSO) and estradiol in water were prepared. […] After another 24 hours, one μCi of [methyl-3H] thymidine was added to each well. The media was removed after 24 hours. The cells were washed once in PBS, the PBS was removed completely and the cells were left on ice to incubate with 1 ml per well of 10% TCA (trichloroacetic acid) for 30 minutes. The plates were washed 3 times with 5% TCA to remove all traces of thymidine which wasn't incorporated into the cells. 500 μl of 0.1M sodium hydroxide was added to each well and the plates were incubated at room temperature for at least 30 minutes. 250 μl of each sample was transferred to scintillation vials and after adding 5 mL of counting fluid, the vials were counted for 5 minutes each on a setting for tritium. […] Values were expressed as mean of quadruplicate wells +/- standard deviation.

## C[C@]12CC[C@@H]3c4ccc(O)cc4CC[C@H]3[C@@H]1CC[C@@H]2O [Estradiol, estradiol, reference compound]
ZR75, EXPT 1
  activity at 0.001 µM: 220 ± 11%
  activity at 0.01 µM: 210 ± 9.7%
  activity at 0.1 µM: 205 ± 15.6%
  activity at 1 µM: 190 ± 24.5%
ZR75, EXPT 2
  activity at 0.001 µM: 133 ± 29%
  activity at 0.01 µM: 152 ± 17.7%
  activity at 0.1 µM: 156 ± 11.7%
  activity at 1 µM: 142 ± 18.3%
Table 1 summary
  proliferation of ZR 75 cells: stimulated proliferation of ZR 75 cells
